Reference: PubChem BioAssay AID1259407 (Chemical Carcinogenesis Research Information System (CCRIS), 2018)
Activity calls are given as the source filed them. The rule behind the calls is not given here.

Tested on: CCRIS mutagenicity, Ames/micronucleus/aberration tests
Assay: CCRIS mutagenicity studies
[1] = Test System: AMES SALMONELLA TYPHIMURIUM, Strain/Indicator: TA98, Metabolic Activation: NONE, Method: STANDARD PLATE
[2] = Test System: AMES SALMONELLA TYPHIMURIUM, Strain/Indicator: TA100, Metabolic Activation: NONE, Method: STANDARD PLATE
[3] = Test System: AMES SALMONELLA TYPHIMURIUM, Strain/Indicator: TA100, Metabolic Activation: RAT, LIVER, S-9, AROCLOR 1254, Method: STANDARD PLATE
[4] = Test System: AMES SALMONELLA TYPHIMURIUM, Strain/Indicator: TA1535, Metabolic Activation: HAMSTER, LIVER, S-9, AROCLOR 1254, Method: STANDARD PLATE
[5] = Test System: AMES SALMONELLA TYPHIMURIUM, Strain/Indicator: TA1535, Metabolic Activation: NONE, Method: PREINCUBATION
[6] = Test System: AMES SALMONELLA TYPHIMURIUM, Strain/Indicator: TA1535, Metabolic Activation: NONE, Method: STANDARD PLATE
[7] = Test System: AMES SALMONELLA TYPHIMURIUM, Strain/Indicator: TA1535, Metabolic Activation: RAT, LIVER, S-9, AROCLOR 1254, Method: STANDARD PLATE
[8] = Test System: AMES SALMONELLA TYPHIMURIUM, Strain/Indicator: TA100, Metabolic Activation: NONE, Method: PREINCUBATION

Measured: mutagenic call

CC(=O)OC1Cc2c(C)ccc3cc4c(ccc5ccccc54)c1c23 (stereo unspecified)
active: [1] active; positive | [2] active; positive

CN(Cc1ccccc1)N=O
active: [3] active; positive | Test System: AMES SALMONELLA TYPHIMURIUM, Strain/Indicator: TA100, Metabolic Activation: RAT, LIVER, S-9, ETHANOL, Method: STANDARD PLATE active; positive | Test System: AMES SALMONELLA TYPHIMURIUM, Strain/Indicator: TA100, Metabolic Activation: RAT, LIVER, S-9, KC500 OR PHENOBARBITAL, Method: LIQUID SUSPENSION active; positive | Test System: AMES SALMONELLA TYPHIMURIUM, Strain/Indicator: TA100, Metabolic Activation: RAT, LIVER, S-9, Method: STANDARD PLATE active; positive | [4] active; positive | [7] active; positive | Test System: AMES SALMONELLA TYPHIMURIUM, Strain/Indicator: TA1535, Metabolic Activation: RAT, LIVER, S-9, AROCLOR, Method: PREINCUBATION active; positive | Test System: AMES SALMONELLA TYPHIMURIUM, Strain/Indicator: TA1535, Metabolic Activation: RAT, LIVER, S-9, SODIUM PHENOBARBITONE, Method: PREINCUBATION active; positive
inactive: [5] inactive; negative | [6] inactive; negative | Test System: AMES SALMONELLA TYPHIMURIUM, Strain/Indicator: TA1535, Metabolic Activation: RAT, LIVER, HEPATOCYTES, Method: PREINCUBATION inactive; negative | Test System: AMES SALMONELLA TYPHIMURIUM, Strain/Indicator: TA1535, Metabolic Activation: RAT, LIVER, S-9, ETHANOL, Method: STANDARD PLATE inactive; negative | Test System: AMES SALMONELLA TYPHIMURIUM, Strain/Indicator: TA1535, Metabolic Activation: RAT, LIVER, S-9, Method: PREINCUBATION inactive; negative | Test System: AMES SALMONELLA TYPHIMURIUM, Strain/Indicator: TA1535, Metabolic Activation: RAT, LIVER, S-9, Method: STANDARD PLATE inactive; negative

C[C@@H]1Cc2ccc(C(=O)N[C@@H](Cc3ccccc3)C(=O)O)c(O)c2C(=O)O1
inactive: End Point: IN VIVO CHROMOSOMAL ABERRATIONS, Test System: SPLENOCYTES, Species: RAT, Strain/Sex: FISCHER 344/MALE, Route: ORAL (GAVAGE) inactive; negative | Test System: AMES SALMONELLA TYPHIMURIUM, Strain/Indicator: TA102, Metabolic Activation: NONE, Method: STANDARD PLATE inactive; negative | Test System: AMES SALMONELLA TYPHIMURIUM, Strain/Indicator: TA102, Metabolic Activation: RAT, LIVER, S-9, AROCLOR 1254, Method: STANDARD PLATE inactive; negative

O=Cc1cn([C@@H]2O[C@H](CO)[C@@H](O)[C@H]2O)c(=O)[nH]c1=O
inactive: Test System: CHINESE HAMSTER V-79, Strain/Indicator: V-79 (HPRT)/6-THIOGUANINE, Metabolic Activation: NONE, Method: STANDARD PLATE inactive; negative

COC(=O)[C@H](C)Cl
inactive: [8] inactive; negative | Test System: AMES SALMONELLA TYPHIMURIUM, Strain/Indicator: TA100, Metabolic Activation: RAT, LIVER, S-9, PCB, Method: PREINCUBATION inactive; negative

Nc1ccc2c(n1)[nH]c1ccccc12
active: Test System: AMES SALMONELLA TYPHIMURIUM, Strain/Indicator: TA98, Metabolic Activation: MONKEY, LIVER, S-9, Method: PREINCUBATION active; positive | Test System: AMES SALMONELLA TYPHIMURIUM, Strain/Indicator: TA98, Metabolic Activation: RAT, LIVER, S-9, AROCLOR 1254, Method: PREINCUBATION active; positive | Test System: AMES SALMONELLA TYPHIMURIUM, Strain/Indicator: TA100, Metabolic Activation: RAT, LIVER, S-9, AROCLOR 1254, Method: PREINCUBATION active; positive | Test System: AMES SALMONELLA TYPHIMURIUM, Strain/Indicator: YG1019, Metabolic Activation: RAT LIVER S-9, AROCLOR, Method: PREINCUBATION active; positive

CCc1cc(-c2ccccc2)ccc1N
inactive: [1] inactive; negative
active: Test System: AMES SALMONELLA TYPHIMURIUM, Strain/Indicator: TA98, Metabolic Activation: RAT LIVER S-9, AROCLOR, Method: STANDARD PLATE active; positive | [2] active; positive | Test System: AMES SALMONELLA TYPHIMURIUM, Strain/Indicator: TA100, Metabolic Activation: RAT LIVER S-9, AROCLOR, Method: STANDARD PLATE active; positive

CCCCOCCOC(=O)COc1ccc(Cl)cc1Cl
inactive: Test System: AMES SALMONELLA TYPHIMURIUM, Strain/Indicator: TA98, Metabolic Activation: NONE, Method: PREINCUBATION inactive; negative | Test System: AMES SALMONELLA TYPHIMURIUM, Strain/Indicator: TA98, Metabolic Activation: RAT LIVER S-9, AROCLOR 1254, 10%, Method: PREINCUBATION inactive; negative | [8] inactive; negative | Test System: AMES SALMONELLA TYPHIMURIUM, Strain/Indicator: TA100, Metabolic Activation: RAT LIVER S-9, AROCLOR 1254, 10%, Method: PREINCUBATION inactive; negative | [5] inactive; negative | Test System: AMES SALMONELLA TYPHIMURIUM, Strain/Indicator: TA1535, Metabolic Activation: RAT LIVER S-9, AROCLOR 1254, 10%, Method: PREINCUBATION inactive; negative | Test System: AMES SALMONELLA TYPHIMURIUM, Strain/Indicator: TA1537, Metabolic Activation: NONE, Method: PREINCUBATION inactive; negative | Test System: AMES SALMONELLA TYPHIMURIUM, Strain/Indicator: TA1537, Metabolic Activation: RAT LIVER S-9, AROCLOR 1254, 10%, Method: PREINCUBATION inactive; negative | Test System: UDS RAT HEPATOCYTES, Strain/Indicator: THYMIDINE INCORPORATION, Metabolic Activation: NONE, Method: AUTORADIOGRAPHY inactive; negative

CC(Cc1ccc(O)c(O)c1)C(C)Cc1ccc(O)c(O)c1 (stereo unspecified)
inactive: Test System: AMES SALMONELLA TYPHIMURIUM, Strain/Indicator: TA98, Metabolic Activation: HAMSTER, LIVER, S-9, AROCLOR 1254, Method: STANDARD PLATE inactive; negative | [1] inactive; negative | Test System: AMES SALMONELLA TYPHIMURIUM, Strain/Indicator: TA98, Metabolic Activation: RAT, LIVER, S-9, AROCLOR 1254, Method: STANDARD PLATE inactive; negative | Test System: AMES SALMONELLA TYPHIMURIUM, Strain/Indicator: TA100, Metabolic Activation: HAMSTER, LIVER, S-9, AROCLOR 1254, Method: STANDARD PLATE inactive; negative | [2] inactive; negative | [3] inactive; negative | [4] inactive; negative | [6] inactive; negative | [7] inactive; negative | Test System: AMES SALMONELLA TYPHIMURIUM, Strain/Indicator: TA1537, Metabolic Activation: HAMSTER, LIVER, S-9, AROCLOR 1254, Method: STANDARD PLATE inactive; negative | Test System: AMES SALMONELLA TYPHIMURIUM, Strain/Indicator: TA1537, Metabolic Activation: NONE, Method: STANDARD PLATE inactive; negative | Test System: AMES SALMONELLA TYPHIMURIUM, Strain/Indicator: TA1537, Metabolic Activation: RAT, LIVER, S-9, AROCLOR 1254, Method: STANDARD PLATE inactive; negative | Test System: AMES SALMONELLA TYPHIMURIUM, Strain/Indicator: TA1538, Metabolic Activation: HAMSTER, LIVER, S-9, AROCLOR 1254, Method: STANDARD PLATE inactive; negative | Test System: AMES SALMONELLA TYPHIMURIUM, Strain/Indicator: TA1538, Metabolic Activation: NONE, Method: STANDARD PLATE inactive; negative | Test System: AMES SALMONELLA TYPHIMURIUM, Strain/Indicator: TA1538, Metabolic Activation: RAT, LIVER, S-9, AROCLOR 1254, Method: STANDARD PLATE inactive; negative | Test System: MOUSE LYMPHOMA, Strain/Indicator: L5178Y (TK+/TK-), Metabolic Activation: RAT, LIVER, S-9, AROCLOR 1254, Method: SUSPENSION/PLATE inactive; negative. reevaluation of results: negative
active: Test System: MOUSE LYMPHOMA, Strain/Indicator: L5178Y (TK+/TK-), Metabolic Activation: NONE, Method: SUSPENSION/PLATE active; positive. reevaluation of results: positive
